Test results taken from ChEMBL document CHEMBL3400015, “Tertiary amides of Salinomycin: A new group of antibacterial agents against Bacillus anthracis and methicillin-resistant Staphylococcus epidermidis” (Bioorg Med Chem Lett, 2015).

Key:
[1] = test system: Staphylococcus aureus; experiment: Antimicrobial activity against Staphylococcus aureus […] after 18 hrs by twofold serial broth dilution method; format: functional
[2] = test system: Staphylococcus epidermidis; experiment: Bactericidal activity against methicillin-resistant Staphylococcus epidermidis isolate 469/11 after 24 hrs; format: functional; settings: isolate 469/11, 24 h, read-out: MBC99.9
[3] = test system: Staphylococcus epidermidis; experiment: Bactericidal activity against methicillin-resistant Staphylococcus epidermidis isolate 405/10 after 24 hrs; format: functional; settings: isolate 405/10, 24 h, read-out: MBC99.9
[4] = test system: Staphylococcus epidermidis; experiment: Bactericidal activity against Staphylococcus epidermidis ATCC 35984 after 24 hrs; format: functional; settings: ATCC 35984, 24 h, read-out: MBC99.9
[5] = test system: Bacillus anthracis; experiment: Antimicrobial activity against Bacillus anthracis 34F2 after 18 hrs by twofold serial broth dilution method; format: functional; settings: 34F2, 18 h
[6] = test system: Staphylococcus epidermidis; experiment: Antimicrobial activity against methicillin-resistant Staphylococcus epidermidis isolate 458/11 after 18 hrs by twofold serial broth dilution method; format: functional; settings: isolate 458/11, 18 h
[7] = test system: Staphylococcus epidermidis; experiment: Antimicrobial activity against Staphylococcus epidermidis ATCC 12228 after 18 hrs by twofold serial broth dilution method; format: functional; settings: ATCC 12228, 18 h
[8] = test system: Escherichia coli; experiment: Bactericidal activity against Escherichia coli NCTC 8196 after 24 hrs; format: functional; settings: NCTC 8196, 24 h, read-out: MBC99.9
[9] = test system: Pseudomonas aeruginosa; experiment: Antimicrobial activity against Pseudomonas aeruginosa ATCC 15442 after 18 hrs by twofold serial broth dilution method; format: functional; settings: ATCC 15442, 18 h
[10] = test system: Staphylococcus aureus; experiment: Antimicrobial activity against Staphylococcus aureus ATCC 6538 after 18 hrs by twofold serial broth dilution method; format: functional; settings: ATCC 6538, 18 h
[11] = test system: Staphylococcus epidermidis; experiment: Antimicrobial activity against methicillin-resistant Staphylococcus epidermidis isolate 403/10 after 18 hrs by twofold serial broth dilution method; format: functional; settings: isolate 403/10, 18 h
[12] = test system: Staphylococcus epidermidis; experiment: Antimicrobial activity against methicillin-resistant Staphylococcus epidermidis isolate 459/11 after 18 hrs by twofold serial broth dilution method; format: functional; settings: isolate 459/11, 18 h
[13] = test system: Staphylococcus epidermidis; experiment: Bactericidal activity against Staphylococcus epidermidis ATCC 12228 after 24 hrs; format: functional; settings: ATCC 12228, 24 h, read-out: MBC99.9
[14] = test system: Pseudomonas aeruginosa; experiment: Bactericidal activity against Pseudomonas aeruginosa NCTC 6749 after 24 hrs; format: functional; settings: NCTC 6749, 24 h, read-out: MBC99.9
[15] = test system: Staphylococcus epidermidis; experiment: Antimicrobial activity against methicillin-resistant Staphylococcus epidermidis isolate 455/11 after 18 hrs by twofold serial broth dilution method; format: functional; settings: isolate 455/11, 18 h
[16] = test system: Staphylococcus epidermidis; experiment: Bactericidal activity against methicillin-resistant Staphylococcus epidermidis isolate 457/11 after 24 hrs; format: functional; settings: isolate 457/11, 24 h, read-out: MBC99.9
[17] = test system: Staphylococcus epidermidis; experiment: Bactericidal activity against methicillin-resistant Staphylococcus epidermidis isolate 422/10 after 24 hrs; format: functional; settings: isolate 422/10, 24 h, read-out: MBC99.9
[18] = test system: Staphylococcus aureus; experiment: Antimicrobial activity against Staphylococcus aureus ATCC 25923 after 18 hrs by twofold serial broth dilution method; format: functional; settings: ATCC 25923, 18 h
[19] = test system: Staphylococcus epidermidis; experiment: Bactericidal activity against methicillin-resistant Staphylococcus epidermidis isolate 454/11 after 24 hrs; format: functional; settings: isolate 454/11, 24 h, read-out: MBC99.9
[20] = test system: Staphylococcus epidermidis; experiment: Bactericidal activity against methicillin-resistant Staphylococcus epidermidis isolate 458/11 after 24 hrs; format: functional; settings: isolate 458/11, 24 h, read-out: MBC99.9
[21] = test system: Staphylococcus epidermidis; experiment: Antimicrobial activity against methicillin-resistant Staphylococcus epidermidis isolate 469/11 after 18 hrs by twofold serial broth dilution method; format: functional; settings: isolate 469/11, 18 h
[22] = test system: Escherichia coli; experiment: Bactericidal activity against Escherichia coli ATCC 10538 after 24 hrs; format: functional; settings: ATCC 10538, 24 h, read-out: MBC99.9
[23] = test system: Staphylococcus epidermidis; experiment: Bactericidal activity against methicillin-resistant Staphylococcus epidermidis isolate 403/10 after 24 hrs; format: functional; settings: isolate 403/10, 24 h, read-out: MBC99.9
[24] = test system: Bacillus subtilis; experiment: Genotoxicity in rec-positive Bacillus subtilis H17 at 2 ug/9 mm disc after 24 hrs by disc diffusion method; format: toxicity, organism-based
[25] = test system: Staphylococcus epidermidis; experiment: Antimicrobial activity against methicillin-resistant Staphylococcus epidermidis isolate 470/11 after 18 hrs by twofold serial broth dilution method; format: functional; settings: isolate 470/11, 18 h
[26] = test system: Pseudomonas aeruginosa; experiment: Bactericidal activity against Pseudomonas aeruginosa ATCC 27853 after 24 hrs; format: functional; settings: ATCC 27853, 24 h, read-out: MBC99.9
[27] = test system: Staphylococcus aureus; experiment: Bactericidal activity against Staphylococcus aureus ATCC 6538 after 24 hrs; format: functional; settings: ATCC 6538, 24 h, read-out: MBC99.9
[28] = test system: Staphylococcus epidermidis; experiment: Antimicrobial activity against methicillin-resistant Staphylococcus epidermidis isolate 424/10 after 18 hrs by twofold serial broth dilution method; format: functional; settings: isolate 424/10, 18 h
[29] = test system: Staphylococcus epidermidis; experiment: Antimicrobial activity against methicillin-resistant Staphylococcus epidermidis isolate 461/11 after 18 hrs by twofold serial broth dilution method; format: functional; settings: isolate 461/11, 18 h
[30] = test system: Staphylococcus epidermidis; experiment: Bactericidal activity against methicillin-resistant Staphylococcus epidermidis isolate 424/10 after 24 hrs; format: functional; settings: isolate 424/10, 24 h, read-out: MBC99.9
[31] = test system: Staphylococcus epidermidis; experiment: Antimicrobial activity against methicillin-resistant Staphylococcus epidermidis isolate 457/11 after 18 hrs by twofold serial broth dilution method; format: functional; settings: isolate 457/11, 18 h
[32] = test system: Staphylococcus epidermidis; experiment: Bactericidal activity against methicillin-resistant Staphylococcus epidermidis isolate 460/11 after 24 hrs; format: functional; settings: isolate 460/11, 24 h, read-out: MBC99.9
[33] = test system: Staphylococcus epidermidis; experiment: Bactericidal activity against methicillin-resistant Staphylococcus epidermidis isolate 461/11 after 24 hrs; format: functional; settings: isolate 461/11, 24 h, read-out: MBC99.9
[34] = test system: Escherichia coli; experiment: Antimicrobial activity against Escherichia coli NCTC 8196 after 18 hrs by twofold serial broth dilution method; format: functional; settings: NCTC 8196, 18 h
[35] = test system: Staphylococcus epidermidis; experiment: Bactericidal activity against methicillin-resistant Staphylococcus epidermidis isolate 404/10 after 24 hrs; format: functional; settings: isolate 404/10, 24 h, read-out: MBC99.9
[36] = test system: Staphylococcus epidermidis; experiment: Antimicrobial activity against methicillin-resistant Staphylococcus epidermidis isolate 454/11 after 18 hrs by twofold serial broth dilution method; format: functional; settings: isolate 454/11, 18 h
[37] = test system: Staphylococcus aureus; experiment: Bactericidal activity against Staphylococcus aureus […] after 24 hrs; format: functional; settings: read-out: MBC99.9
[38] = test system: Staphylococcus epidermidis; experiment: Antimicrobial activity against methicillin-resistant Staphylococcus epidermidis isolate 409/10 after 18 hrs by twofold serial broth dilution method; format: functional; settings: isolate 409/10, 18 h
[39] = test system: Staphylococcus epidermidis; experiment: Bactericidal activity against methicillin-resistant Staphylococcus epidermidis isolate 459/11 after 24 hrs; format: functional; settings: isolate 459/11, 24 h, read-out: MBC99.9
[40] = test system: Staphylococcus epidermidis; experiment: Bactericidal activity against methicillin-resistant Staphylococcus epidermidis isolate 407/10 after 24 hrs; format: functional; settings: isolate 407/10, 24 h, read-out: MBC99.9
[41] = test system: Pseudomonas aeruginosa; experiment: Antimicrobial activity against Pseudomonas aeruginosa NCTC 6749 after 18 hrs by twofold serial broth dilution method; format: functional; settings: NCTC 6749, 18 h
[42] = test system: Staphylococcus epidermidis; experiment: Bactericidal activity against methicillin-resistant Staphylococcus epidermidis isolate 409/10 after 24 hrs; format: functional; settings: isolate 409/10, 24 h, read-out: MBC99.9
[43] = test system: Staphylococcus aureus; experiment: Bactericidal activity against Staphylococcus aureus NCTC 4163 after 24 hrs; format: functional; settings: NCTC 4163, 24 h, read-out: MBC99.9

CC[C@@H](C(=O)[C@@H](C)[C@@H](O)[C@H](C)[C@@H]1O[C@@H]([C@@H](CC)C(=O)N(Cc2ccccc2)Cc2ccccc2)CC[C@@H]1C)[C@H]1O[C@]2(C=C[C@@H](O)[C@]3(CC[C@@](C)([C@H]4CC[C@](O)(CC)[C@H](C)O4)O3)O2)[C@H](C)C[C@@H]1C
21 mm: diameter of the inhibition zone (DIZ) [24]
256 µg/mL: MBC [13] | MBC [16] | MBC [17] | MBC [27] | MBC [30] | MBC [39] | MBC [40] | MBC [42] | MBC [43]
> 256 µg/mL: MBC [2] | MBC [8] | MIC [9] | MBC [14] | MBC [20] | MBC [22] | MBC [23] | MBC [26] | MBC [32] | MBC [33] | MIC [34] | MBC [35] | MBC [37] | MIC [41]
16 µg/mL: MIC [6] | MIC [7] | MIC [10] | MIC [11] | MIC [12] | MIC [28] | MIC [31] | MIC [38]
128 µg/mL: MBC [3] | MBC [4] | MBC [19]
8 µg/mL: MIC [18] | MIC [36]
32 µg/mL: MIC [1] | MIC [5] | MIC [15] | MIC [21] | MIC [25] | MIC [29]

CCCCN(CCCC)C(=O)[C@H](CC)[C@H]1CC[C@H](C)[C@H]([C@@H](C)[C@H](O)[C@H](C)C(=O)[C@H](CC)[C@H]2O[C@]3(C=C[C@@H](O)[C@]4(CC[C@@](C)([C@H]5CC[C@](O)(CC)[C@H](C)O5)O4)O3)[C@H](C)C[C@@H]2C)O1
8 µg/mL: MIC [1] | MIC [7] | MIC [10] | MIC [11] | MIC [18] | MIC [21] | MIC [25] | MIC [28] | MIC [29]
256 µg/mL: MBC [16] | MBC [17] | MBC [20] | MBC [23] | MBC [27] | MBC [30] | MBC [39] | MBC [40]
29 mm: diameter of the inhibition zone (DIZ) [24]
16 µg/mL: MIC [15] | MIC [38]
4 µg/mL: MIC [6] | MIC [12] | MIC [31] | MIC [36]
> 256 µg/mL: MBC [2] | MBC [4] | MBC [8] | MIC [9] | MBC [13] | MBC [14] | MBC [22] | MBC [26] | MBC [32] | MBC [33] | MIC [34] | MBC [35] | MBC [37] | MIC [41] | MBC [42] | MBC [43]
128 µg/mL: MBC [3] | MBC [19]
64 µg/mL: MIC [5]
